Laboratory results published in patent US12502391B2, “Multi-kinase inhibitors of VEGF and TGF beta and uses thereof” (AIVIVA BIOPHARMA, INC., priority 2018, dated 2025).
Values joined by “and” are separate entries in the source; they are usually repeats but may differ in a detail not shown here. Identical values can stand only once.

How the values were obtained:
TGF-beta 1 = assay: Dermal TGFb1 levels (ELISA) after linear incisional wounds in minipigs; type: in vivo, Gottingen Minipigs; conditions: approximately 16 mg intradermally once per incisional wound, biopsies days 4, 7, 9 post-dosing
From the text: The purpose of this study was to evaluate the topical effects of axitinib, nintedanib, sorafenib and lenvatinib when administered via intradermal injection to the dorsal skin along linear incisions of minipigs. Linear incisional wound was made to elicit inflammatory and wound healing process in the skin. After dosing, mammals were observed post dose for 9 days to assess the levels of TGFb1 expressions in the skin.
Three male Gottingen Minipigs® dosed once via intradermal injection along the edges of each of the linear incision wound sites for each mammal (wounds on the dorsum, perpendicular to the spine, approximately 3 cm in length and 3 cm distance from the spine). Each incisional wound received approximately 16 mg of the test compound intradermally once along both sides of the linear wound.
On days of 4, 7, and 9 post-dosing, one 4 mm dermal punch biopsy was collected for each incisional wound and processed for TGF-beta 1 analysis with ELISA, using a commercial kit (e.g., the kit from Thermo Fisher or other vendors).

TGF beta1 mRNA = TGF beta1 mRNA expression (qRT-PCR) in rabbit ear hypertrophic scar model; type: in vivo, New Zealand white rabbits; conditions: 1% w/w, 100 μl intradermal on days 15 and 29, harvest Day 43
Experimental: The objective of this study was to examine the effect of test compounds on wound healing and TGF beta expression after dermal injury in a rabbit ear hypertrophic scar model.
In New Zealand white rabbits, maintained under a surgical plane of anesthesia, trauma stimulation of the skin on the ventral surface of both ears is initiated on Day 1. Trauma sites are evaluated on Days 8, 15, 22, 29, 36, and 43. On days 15 and 29, each site is dosed with test compounds (e.g., 1% w/w, 100 μl) by intradermal or intralesional injections.
Mammals are euthanized on Day 43, and the trauma sites are harvested and frozen for TGF beta analysis using quantitative RT-PCR (qRT-PCR) (e.g., A. K. Johnson et al., Dev. Comp. Immunol., 2006; 30(5): 473-84). TGF beta1 mRNA expression levels in treated trauma samples are compared to the expression level in the untreated trauma sample.

[1] = tested on: suture-induced ocular fibrosis; assay: Rabbit corneal suture-induced ocular fibrosis model; type: in vivo, rabbits; conditions: 0.3% w/v eyedrops 35 uL three times daily for 10 days
From the text: In order to investigate the anti-fibrotic effect of test compounds following wounding in the eye, a suture-induced ocular fibrosis model was used. Suture was placed intrastromally under a microscope in the cornea of rabbits. In each eye, one 9.0 silk suture was placed, in a vertical position, temporal to the corneal center and a second suture was placed nasal to the corneal center. Each suture had two stromal incursions approximately 2 mm from the limbus. Test compounds having certain spectrum of multikinase inhibition activities and/or vehicle were topically instilled (35 uL/eye) in the eyes three times daily for 10 days the day following surgery. The treatment groups include vehicle, nintedanib (0.3%, w/v), pirfenidone (1%, w/v), riociguat (0.3%, w/v), sorafenib (0.3%, w/v) and lenvatinib (0.3%, w/v). Six left eyes were used per treatment group.
The animals were sacrificed on Day 11 and the eyes enucleated and dissected for histopathological evaluation.

[2] = tested on: benign prostate hyperplasia; assay: Testosterone and phenylephrine induced benign prostate hyperplasia in rats; type: in vivo, Wistar rats; design: key to epithelial hyperplasia score, dorsolateral prostate, representative image / epithelial hyperplasia score, ventral prostate, representative image: severity grade 0 = not present to 5 = severe; conditions: TE and PE induced rats; for epithelial hyperplasia score, dorsolateral prostate, representative image / epithelial hyperplasia score, ventral prostate, representative image: intra-prostate injection 0.4 ml on days 1 and 18 (1% w/w; doxazosin mesylate 0.5%), severity grade 0 (not present) through 5 (severe), induced vehicle score=4; for glandular hyperplasia compared to untreated TE/PE induced prostates: intra-prostate injection on days 1 and 18
Experimental: BPH is a true hyperplastic process. Histologic studies have documented an increase in cell number. A study was conducted, therefore, to determine the effects of test compounds and vehicle on testosterone (TE) and phenylephrine (PE) induced benign prostate hyperplasia in rats. Male Wistar rats were induced with testosterone (2 mg/kg) plus phenylephrine (5 mg/kg) administered daily by subcutaneous injection on days 5 through 32. Vehicle or test compounds (all at 1% w/w), nintedanib, sunitinib, lenvatinib, and 0.5% doxazosin mesylate, were administered by intra-prostate injection (0.4 ml) in dorsolateral and ventral lobes on days 1 and 18. Animals were euthanized on day 32. Body weights were determined and prostate glands were harvested. The experimental design is outlined in Table 6.
At necropsy, the ventral and dorsolateral lobes of the prostate were separated and then cut into halves. The left halves were fixed in 10% neutral buffered formalin, sectioned, and stained with Hematoxylin and Eosin (H&E). Histological changes in these sections were scored. Epithelial hyperplasia was recognized as an increase in epithelial cells within normal-appearing gland profiles, primarily reflected by stratification of epithelial cells and increased presence of epithelial tufting and papillary projections. A severity grade of 0 (not present) through 5 (severe) was assigned to each sample.

[3] = tested on: full-thickness excision wounds; assay: Histology of full-thickness excision wounds in Yucatan minipigs (fibroplasia, neovascularization); type: in vivo; conditions: for Neovascularization; dermis, average score / Fibroplasia; dermis, average score: Yucatan minipig wound sites after two doses, Day 59, scale 1 (minimal) to 5 (severe); for Neovascularization; dermis, average score: untreated 2.33; for Fibroplasia; dermis, average score: untreated 3.33
From the text: (§1) In this experiment, multiple full-thickness excision wounds were made to the dorsum of Yucatan minipigs, and the wound sites were allowed to be re-epithelialized adequately. At four weeks post-wound, the wound sites had normal to pink vascularity and had pliability. Epidermal hyperplasia was observed, as expected for regenerative responses in the full-thickness wounds.
(§2) On Day 28 post-wound, a dose (e.g., 1%) of axitinib, nintedanib, riociguat, sorafenib, sunitinib, and/or lenvatinib was administered into the dermal tissue at or around the wound sites, once every two weeks on two occasions. One wound site was left untreated as the control for each pig. Please note that the particular parameters in this example are only for illustration. One skilled in the art would appreciate that the dosages, administration methods, treatment regimen, and the administration sites may be varied to achieve similar results.
On Day 59 post wound, the minipigs were sacrificed and dermal tissues were collected for qualitative and quantitative evaluation using hematoxylin and eosin, and Mason's Trichrome staining. Dermal fibroplasia was characterized by increased numbers of fibroblasts in the dermis suspended in variable amounts of collagen in wounds.

TGF-β1 mRNA = TGF-β1 mRNA expression (qRT-PCR) in Yucatan pig skin wound sites; type: in vivo, Yucatan minipigs; conditions: Yucatan pig skin wound sites after treatments; for TGF-β1 mRNA Expression Fold Relative to Untreated Unwounded Control: individual animals 7369, 7370, 7371, duplicate sets 1 and 2, beta actin reference gene
From the text: as §1, §2
In addition, total mRNA was isolated from skin biopsies of the treated wound sites and the untreated unwounded sites of the pigs. The mRNA samples were used to prepare cDNA and analyzed via qRT-PCR. The TGF-β1 expression levels were assessed using beta actin as a reference gene.

Structure (SMILES): COc1cc2nccc(Oc3ccc(NC(=O)NC4CC4)c(Cl)c3)c2cc1C(N)=O [lenvatinib]
- suppression of dermal TGF beta 1 expression over time (TGF-beta 1): very effective in suppressing the expression of TGF beta 1
- mean folds of TGF beta mRNA expression versus untreated wound sample (TGF beta1 mRNA): lower than the expression level in the untreated wound sample
- alpha SMA (smooth muscle actin) staining by immunohistochemistry [1]: significantly reduced alpha SMA (smooth muscle actin) staining
- areas of neovascularization on the corneal surface [1]: efficacious in reducing the areas of neovascularization
- fibroplasia and/or collagen density by histological staining [1]: significantly reduced fibroplasia and/or collagen density
- epithelial hyperplasia score, dorsolateral prostate, representative image [2]: 2
- epithelial hyperplasia score, ventral prostate, representative image [2]: 3
- glandular hyperplasia compared to untreated TE/PE induced prostates [2]: demonstrated reduction of glandular hyperplasia
- Neovascularization; dermis, average score [3]: (2.33)
- Fibroplasia; dermis, average score [3]: (3.00)
- TGF-β1 mRNA Expression Fold Relative to Untreated Unwounded Control (TGF-β1 mRNA): 2.27 fold and 0.62 fold and 0.89 fold and 0.38 fold and 0.69 fold and 2.02 fold

Structure (SMILES): COC(=O)c1ccc2c(c1)NC(=O)/C2=C(\Nc1ccc(N(C)C(=O)CN2CCN(C)CC2)cc1)c1ccccc1 [nintedanib]
- suppression of dermal TGF beta 1 expression over time (TGF-beta 1): very effective in suppressing the expression of TGF beta 1
- mean folds of TGF beta mRNA expression versus untreated wound sample (TGF beta1 mRNA): lower than the expression level in the untreated wound sample
- alpha SMA (smooth muscle actin) staining by immunohistochemistry [1]: significantly reduced alpha SMA (smooth muscle actin) staining
- areas of neovascularization on the corneal surface [1]: efficacious in reducing the areas of neovascularization
- fibroplasia and/or collagen density by histological staining [1]: significantly reduced fibroplasia and/or collagen density
- epithelial hyperplasia score, dorsolateral prostate, representative image [2]: 3
- epithelial hyperplasia score, ventral prostate, representative image [2]: 3
- glandular hyperplasia compared to untreated TE/PE induced prostates [2]: demonstrated reduction of glandular hyperplasia
- Neovascularization; dermis, average score [3]: (1.67)
- Fibroplasia; dermis, average score [3]: (2.33)
- neovascularization and dermal fibroplasia relative to the untreated wound ([3]; Yucatan minipig, two biweekly treatments): noticeably reduced neovascularization with a corresponding reduced dermal fibroplasia
- reduction of TGF-β1 mRNA expression levels at treated wounds (TGF-β1 mRNA): most effective
- TGF-β1 mRNA Expression Fold Relative to Untreated Unwounded Control (TGF-β1 mRNA): 0.70 fold and 0.66 fold and 0.55 fold and 0.56 fold and 0.63 fold and 0.87 fold

Structure (SMILES): CNC(=O)c1cc(Oc2ccc(NC(=O)Nc3ccc(Cl)c(C(F)(F)F)c3)cc2)ccn1 [sorafenib]
- suppression of dermal TGF beta 1 expression over time (TGF-beta 1): not as effective
- mean folds of TGF beta mRNA expression versus untreated wound sample (TGF beta1 mRNA): lower than the expression level in the untreated wound sample
- areas of neovascularization on the corneal surface [1]: inhibition of corneal neovascularization
- Neovascularization; dermis, average score [3]: (2.33)
- Fibroplasia; dermis, average score [3]: (3.00)
- reduction of TGF-β1 mRNA expression levels at treated wounds (TGF-β1 mRNA): most effective
- TGF-β1 mRNA Expression Fold Relative to Untreated Unwounded Control (TGF-β1 mRNA): 0.84 fold and 0.60 fold and 0.53 fold and 0.43 fold and 0.55 fold and 0.89 fold
